Assay results published in patent US20140045823A1 (Neurocrine Biosciences, Inc., priority 2012, published 2014).

Target: T1, human GPR119 (Homo sapiens, UniProt Q8TDV5)
T1 construct: expression vector for human GPR119 cDNA (Acc. No. NP_848566); expressed in transfected cells; Min-6/hGPR119
T1 sequence (Q8TDV5 1-335): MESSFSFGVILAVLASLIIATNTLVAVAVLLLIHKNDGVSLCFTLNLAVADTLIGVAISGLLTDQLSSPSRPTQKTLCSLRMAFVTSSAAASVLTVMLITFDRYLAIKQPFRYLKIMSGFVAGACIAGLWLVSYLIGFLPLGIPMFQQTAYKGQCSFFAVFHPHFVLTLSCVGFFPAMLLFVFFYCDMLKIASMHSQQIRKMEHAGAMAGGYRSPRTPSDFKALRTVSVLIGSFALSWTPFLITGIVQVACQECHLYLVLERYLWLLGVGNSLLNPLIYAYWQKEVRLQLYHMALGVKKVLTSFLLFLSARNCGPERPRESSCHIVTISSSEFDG
Experiment: AlphaScreen cAMP assay in MIN6 cells stably transfected with human GPR119
Type: cell-based
Settings: Min-6/hGPR119 cells, 45 min at room temperature
Outline: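 cAMP accumulation quantified by AlphaScreen after 45 min compound stimulation at about 20 °C. Stimulation buffer: pH 7.4 HEPES saline with 0.5 mM IBMX, 0.1% BSA, 1% DMSO final. Cells: MIN6 stably transfected with human GPR119, 10000/well, cultured 24 h beforehand.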

Row | SMILES | EC50
1 | COCC1CCCCN1C(=O)c1ccc(-c2ncc(C(=O)N(C3CC3)C3CCN(C(=O)OC(C)(C)C)CC3)cn2)cc1F (stereo not shown) [Example 149, 4-(Cyclopropyl-{2-[3-fluoro-4-(2-methoxymethyl-piperidine-1-carbonyl)-phenyl]-pyrimidine-5-carbonyl}-amino)-piperidine-1-carboxylic acid tert-butyl ester] | 297 nM
2 | CC(O)c1cccc(NC(=O)c2ccc(-c3ncc(C(=O)N(C4CC4)C4CCN(C(=O)OC(C)(C)C)CC4)cn3)cc2F)c1 (stereo not shown) [Example 150, 4-[Cyclopropyl-(2-{3-fluoro-4-[3-(1-hydroxy-ethyl)-phenylcarbamoyl]-phenyl}-pyrimidine-5-carbonyl)-amino]-piperidine-1-carboxylic acid tert-butyl ester] | 238 nM
3 | CC(C)(C)OC(=O)N1CCC(N(C(=O)c2cnc(-c3ccc(C(=O)NCc4cocn4)c(F)c3)nc2)C2CC2)CC1 [Example 151, 4-[Cyclopropyl-(2-{3-fluoro-4-[(oxazol-4-ylmethyl)-carbamoyl]-phenyl}-pyrimidine-5-carbonyl)-amino]-piperidine-1-carboxylic acid tert-butyl ester] | 123 nM
4 | CC(C)(C)OC(=O)N1CCC(N(C(=O)c2cnc(-c3ccc(C(=O)Nc4ccccc4)c(F)c3)nc2)C2CC2)CC1 [Example 153, 4-{Cyclopropyl-[2-(3-fluoro-4-phenylcarbamoyl-phenyl)-pyrimidine-5-carbonyl]-amino}-piperidine-1-carboxylic acid tert-butyl ester] | 109 nM
5 | CC(C)(O)CNC(=O)c1ccc(-c2ncc(C(=O)N(C3CC3)C3CCN(C(=O)OC(C)(C)C)CC3)cn2)cc1F [Example 154, 4-(Cyclopropyl-{2-[3-fluoro-4-(2-hydroxy-2-methyl-propylcarbamoyl)-phenyl]-pyrimidine-5-carbonyl}-amino)-piperidine-1-carboxylic acid tert-butyl ester] | 508 nM
6 | CC(C)(C)OC(=O)N1CCC(N(C(=O)c2cnc(-c3ccc(C(=O)N4CCOCC4)c(F)c3)nc2)C2CC2)CC1 [Example 155, 4-(Cyclopropyl-{2-[3-fluoro-4-(morpholine-4-carbonyl)-phenyl]-pyrimidine-5-carbonyl}-amino)-piperidine-1-carboxylic acid tert-butyl ester] | 448 nM
7 | COCc1cccc(NC(=O)c2ccc(-c3ncc(C(=O)N(C4CC4)C4CCN(C(=O)OC(C)(C)C)CC4)cn3)cc2F)c1 [Example 156, 4-(Cyclopropyl-{2-[3-fluoro-4-(3-methoxymethyl-phenylcarbamoyl)-phenyl]-pyrimidine-5-carbonyl}-amino)-piperidine-1-carboxylic acid tert-butyl ester] | 114 nM

Further lines, results first:

Row | EC50 | SMILES
8 | 159 nM | CC(C)(C)OC(=O)N1CCC(N(C(=O)c2cnc(-c3ccc(C(=O)N4CC(F)(F)C4)cc3F)nc2)C2CC2)CC1 [Example 147, 4-(Cyclopropyl-{2-[4-(3,3-difluoro-azetidine-1-carbonyl)-2-fluoro-phenyl]-pyrimidine-5-carbonyl}-amino)-piperidine-1-carboxylic acid tert-butyl ester]
9 | 395 nM | CN(CC1CCOC1)C(=O)c1ccc(-c2ncc(C(=O)N(C3CC3)C3CCN(C(=O)OC(C)(C)C)CC3)cn2)c(F)c1 (stereo not shown) [Example 148, 4-[Cyclopropyl-(2-{2-fluoro-4-[methyl-(tetrahydro-furan-3-ylmethyl)-carbamoyl]-phenyl}-pyrimidine-5-carbonyl)-amino]-piperidine-1-carboxylic acid tert-butyl ester]
10 | 109 nM | CC(C)(C)OC(=O)N1CCC(N(C(=O)c2cnc(-c3ccc(C(=O)NCC4CCCCO4)c(F)c3)nc2)C2CC2)CC1 (stereo not shown) [Example 152, 4-[Cyclopropyl-(2-{3-fluoro-4-[(tetrahydro-pyran-2-ylmethyl)-carbamoyl]-phenyl}-pyrimidine-5-carbonyl)-amino]-piperidine-1-carboxylic acid tert-butyl ester]
